Experimental data reported in ChEMBL document CHEMBL1201862, “PubChem BioAssay data set” (2004).
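Following 48 hours of exposure in 96-well plates, responses at five concentrations were used to interpolate endpoints linearly. GI50 marks 50% less growth.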 Activity calls are given as the source filed them. No stated cut-off is given here; in the data, active = GI50 up to about 1.1 µM and inactive = higher.

Assays:
Assay in all cases: inhibition of tumour cell growth, NCI panel, 48 h
[1] = test system: M19-MEL
[2] = test system: A549
[3] = test system: SF-295
[4] = test system: HCT-116
[5] = test system: OVCAR-5
[6] = test system: Malme-3M
[7] = test system: KM12
[8] = test system: COLO 205
[9] = test system: SK-MEL-2
[10] = test system: MOLT-4
[11] = test system: LXFL 529
[12] = test system: UO-31
[13] = test system: XF498
[14] = test system: SF-268
[15] = test system: OVCAR-4
[16] = test system: CAKI-1
[17] = test system: DLD-1
[18] = test system: NCI-H460
[19] = test system: HOP-62
[20] = test system: A498
[21] = test system: SNB-78
[22] = test system: SW-620
[23] = test system: UACC-257
[24] = test system: UACC-62
[25] = test system: RPMI-8226
[26] = test system: TK-10
[27] = test system: DMS-114
[28] = test system: SK-MEL-28
[29] = test system: HCC 2998
[30] = test system: IGROV-1
[31] = test system: DMS-273
[32] = test system: KM-20L2
[33] = test system: HT-29
[34] = test system: M14
[35] = test system: LOX IMVI
[36] = test system: EKVX
[37] = test system: CCRF-CEM
[38] = test system: SNB-75
[39] = test system: OVCAR-8
[40] = test system: K562
[41] = test system: SF-539
[42] = test system: NCI-H522
[43] = test system: SK-OV-3
[44] = test system: NCI-H23
[45] = test system: SNB-19
[46] = test system: HL-60
[47] = test system: U-251
[48] = test system: 786-0
[49] = test system: SK-MEL-5
[50] = test system: RXF 631
[51] = test system: ACHN
[52] = test system: OVCAR-3
[53] = test system: RXF 393
[54] = test system: HOP-92
[55] = test system: HCT-15
[56] = test system: SN12C
[57] = test system: NCI-H226
[58] = test system: HOP-18

COc1cc(C)c(C(=O)/C=C/c2cc(OC)c(O)c(OC)c2)cc1O
GI50 [1]: 19.3 µM (inactive) | GI50 [2]: 29.3 µM (inactive) | GI50 [3]: 39 µM (inactive) | GI50 [4]: 14.1 µM (inactive) | GI50 [5]: 27.6 µM (inactive) | GI50 [6]: 20.1 µM (inactive) | GI50 [7]: 15.9 µM (inactive) | GI50 [8]: 32.7 µM (inactive) | GI50 [9]: 18.9 µM (inactive) | GI50 [10]: > 100 µM (inactive) | GI50 [11]: 20.4 µM (inactive) | GI50 [12]: 23 µM (inactive) | GI50 [13]: 15.7 µM (inactive) | GI50 [14]: 23.9 µM (inactive) | GI50 [15]: 21 µM (inactive) | GI50 [16]: 26.4 µM (inactive) | GI50 [17]: 15.3 µM (inactive) | GI50 [18]: 25.1 µM (inactive) | GI50 [19]: 22.7 µM (inactive) | GI50 [20]: 31.6 µM (inactive) | GI50 [21]: 45.5 µM (inactive) | GI50 [22]: 26.4 µM (inactive) | GI50 [23]: 31.1 µM (inactive) | GI50 [24]: 17.7 µM (inactive) | GI50 [25]: > 100 µM (inactive) | GI50 [26]: 45.6 µM (inactive) | GI50 [27]: 20.5 µM (inactive) | GI50 [28]: 18.6 µM (inactive) | GI50 [29]: 16.4 µM (inactive) | GI50 [30]: 28.9 µM (inactive) | GI50 [31]: 15.5 µM (inactive) | GI50 [32]: 26.5 µM (inactive) | GI50 [33]: 30.6 µM (inactive) | GI50 [34]: 15.3 µM (inactive) | GI50 [35]: 19.5 µM (inactive) | GI50 [36]: 32.4 µM (inactive) | GI50 [37]: 12.5 µM (inactive) | GI50 [38]: 20.7 µM (inactive) | GI50 [39]: 30.2 µM (inactive) | GI50 [40]: 19.4 µM (inactive) | GI50 [41]: 29.6 µM (inactive) | GI50 [42]: 18.1 µM (inactive) | GI50 [43]: 32.1 µM (inactive) | GI50 [44]: 12.2 µM (inactive) | GI50 [45]: 18 µM (inactive) | GI50 [46]: 22.1 µM (inactive) | GI50 [47]: 19.6 µM (inactive) | GI50 [48]: 19.2 µM (inactive) | GI50 [49]: 17 µM (inactive) | GI50 [50]: 20.8 µM (inactive) | GI50 [51]: 32.8 µM (inactive) | GI50 [52]: 25.2 µM (inactive)

CC1(c2cc3c(cc2Br)OCO3)SCCCS1
GI50 [53]: 18.3 µM (inactive) | GI50 [1]: 39.6 µM (inactive) | GI50 [2]: 34.5 µM (inactive) | GI50 [3]: 49.1 µM (inactive) | GI50 [4]: 31.7 µM (inactive) | GI50 [5]: 42.3 µM (inactive) | GI50 [7]: 51.4 µM (inactive) | GI50 [8]: 51.4 µM (inactive) | GI50 [9]: 26.2 µM (inactive) | GI50 [10]: 24.7 µM (inactive) | GI50 [11]: 45.7 µM (inactive) | GI50 [12]: 24.2 µM (inactive) | GI50 [13]: 29.5 µM (inactive) | GI50 [14]: 44.6 µM (inactive) | GI50 [15]: 36.3 µM (inactive) | GI50 [17]: 34.8 µM (inactive) | GI50 [18]: 36.2 µM (inactive) | GI50 [19]: 31.1 µM (inactive) | GI50 [20]: 58.5 µM (inactive) | GI50 [21]: 24.3 µM (inactive) | GI50 [54]: 17.7 µM (inactive) | GI50 [22]: 42.1 µM (inactive) | GI50 [24]: 50.6 µM (inactive) | GI50 [25]: 27.4 µM (inactive) | GI50 [26]: 33.4 µM (inactive) | GI50 [27]: 32.2 µM (inactive) | GI50 [28]: 78 µM (inactive) | GI50 [29]: 16.4 µM (inactive) | GI50 [30]: > 100 µM (inactive) | GI50 [31]: 45.2 µM (inactive) | GI50 [32]: 34.4 µM (inactive) | GI50 [33]: 32.1 µM (inactive) | GI50 [34]: 38.3 µM (inactive) | GI50 [35]: 40 µM (inactive) | GI50 [55]: 38.7 µM | GI50 [56]: 39.3 µM (inactive) | GI50 [36]: 77.1 µM (inactive) | GI50 [37]: 32.1 µM (inactive) | GI50 [38]: 40.6 µM (inactive) | GI50 [39]: 47.5 µM (inactive) | GI50 [40]: 31 µM (inactive) | GI50 [41]: 36.5 µM (inactive) | GI50 [42]: 1.84 µM (inactive) | GI50 [43]: > 100 µM (inactive) | GI50 [57]: 32.4 µM (inactive) | GI50 [44]: 13.3 µM (inactive) | GI50 [45]: 47.4 µM (inactive) | GI50 [46]: 25.1 µM (inactive) | GI50 [47]: 33 µM (inactive) | GI50 [48]: 44.3 µM (inactive) | GI50 [49]: 20.4 µM (inactive) | GI50 [50]: 44.9 µM (inactive) | GI50 [51]: 41.4 µM (inactive) | GI50 [52]: 38.4 µM (inactive)

COC(=O)/C(C#N)=C1\NN=NN1CCCc1ccccc1
GI50 [53]: > 100 µM (inactive) | GI50 [1]: > 100 µM (inactive) | GI50 [2]: > 100 µM (inactive) | GI50 [3]: > 100 µM (inactive) | GI50 [4]: > 100 µM (inactive) | GI50 [6]: > 100 µM (inactive) | GI50 [7]: > 100 µM (inactive) | GI50 [8]: > 100 µM (inactive) | GI50 [10]: > 100 µM (inactive) | GI50 [11]: > 100 µM (inactive) | GI50 [12]: 76.4 µM (inactive) | GI50 [16]: > 100 µM (inactive) | GI50 [17]: > 100 µM (inactive) | GI50 [18]: > 100 µM (inactive) | GI50 [20]: 84.3 µM (inactive) | GI50 [21]: > 100 µM (inactive) | GI50 [54]: > 100 µM (inactive) | GI50 [22]: > 100 µM (inactive) | GI50 [23]: > 100 µM (inactive) | GI50 [24]: > 100 µM (inactive) | GI50 [25]: > 100 µM (inactive) | GI50 [26]: > 100 µM (inactive) | GI50 [27]: > 100 µM (inactive) | GI50 [28]: > 100 µM (inactive) | GI50 [29]: > 100 µM (inactive) | GI50 [30]: > 100 µM (inactive) | GI50 [31]: > 100 µM (inactive) | GI50 [33]: > 100 µM (inactive) | GI50 [34]: > 100 µM (inactive) | GI50 [35]: > 100 µM (inactive) | GI50 [55]: > 100 µM | GI50 [56]: > 100 µM (inactive) | GI50 [36]: > 100 µM (inactive) | GI50 [37]: > 100 µM (inactive) | GI50 [38]: > 100 µM (inactive) | GI50 [39]: > 100 µM (inactive) | GI50 [40]: > 100 µM (inactive) | GI50 [41]: > 100 µM (inactive) | GI50 [42]: 13.5 µM (inactive) | GI50 [43]: > 100 µM (inactive) | GI50 [57]: > 100 µM (inactive) | GI50 [58]: 90.6 µM (inactive) | GI50 [44]: > 100 µM (inactive) | GI50 [45]: > 100 µM (inactive) | GI50 [47]: > 100 µM (inactive) | GI50 [48]: > 100 µM (inactive) | GI50 [49]: > 100 µM (inactive) | GI50 [50]: > 100 µM (inactive) | GI50 [51]: > 100 µM (inactive) | GI50 [52]: > 100 µM (inactive)
